Test: Acute toxicity, LD50 in mice (Litchfield and Wilcoxon)
Settings: mouse, in vivo, po
Method: LD50 values were determined in mice and calculated according to the method of Litchfield and Wilcoxon described in J. Pharmacol. Exp. Ther., 96, 99 (1949).

Compound	LD50
CCOC(=O)c1c(C)cc2cnn(-c3ccccc3F)c(=O)c2c1C [7-ethoxycarbonyl-6,8-dimethyl-2-(o-fluorophenyl)-1-phthalazone]	450 mg/kg
CCOC(=O)c1c(C)cc2c(CO)nn(-c3ccccc3Cl)c(=O)c2c1C [7-ethoxycarbonyl-6,8-dimethyl-2-(o-chlorophenyl)-4-hydroxymethyl-1-phthalazone]	564 mg/kg
CCOC(=O)c1c(C)cc2c(CO)nn(-c3ccccc3)c(=O)c2c1C [7-ethoxycarbonyl-6,8-dimethyl-4-hydroxymethyl-2-phenyl-1-phthalazone]	540 mg/kg
CCOC(=O)c1c(C)cc2cnn(-c3ccccc3)c(=O)c2c1C [7-ethoxycarbonyl-6,8-dimethyl-2-phenyl-1-phthalazone]	480 mg/kg
CCOC(=O)c1c(C)cc2cnn(-c3ccccc3Cl)c(=O)c2c1C [7-ethoxycarbonyl-6,8-dimethyl-2-(o-chlorophenyl)-1-phthalazone]	386 mg/kg
